Results from patent US20240239781A1, “1H-PYRAZOLE DERIVATIVES AS SIGMA LIGANDS” (ACONDICIONAMIENTO TARRASENSE, priority 2021, published 2024).

Experiments:
human σ1 receptor = biological target: T1, human σ1 receptor (Homo sapiens, UniProt Q99720); assay: Human σ1 receptor radioligand assay ([3H](+)-pentazocine, transfected HEK-293 membranes); settings: class scale, read-out: Binding σ-1 Ki
T1 construct: expressed in transfected cells; host or cells: HEK-293
In short: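 Compounds were tested at a single 1 or 10 μM concentration (% inhibition) or at five concentrations to give Ki. They competed with 5 nM [3H](+)-pentazocine for transfected HEK-293 membranes (7 μg) in 50 mM Tris-HCl pH 8 at 37° C for 120 minutes. Nonspecific binding was set with 10 μM haloperidol, and a filtration scintillation read-out was used.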

human σ2/TMEM97 receptor = biological target: T2, human σ2/TMEM97 receptor (Homo sapiens, UniProt Q5BJF2); assay: Binding assay to human σ2/TMEM97 receptor ([3H]-DTG, transfected HEK-293 membranes); settings: class scale, read-out: Binding σ-2 Ki
T2 construct: expressed in transfected cells; host or cells: HEK-293
T2 sequence (Q5BJF2 whole entry): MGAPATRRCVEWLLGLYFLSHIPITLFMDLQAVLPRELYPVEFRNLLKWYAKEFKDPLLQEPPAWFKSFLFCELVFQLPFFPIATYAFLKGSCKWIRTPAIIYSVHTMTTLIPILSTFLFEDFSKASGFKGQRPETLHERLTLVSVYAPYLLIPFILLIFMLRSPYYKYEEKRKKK
In short: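 Competition against 10 nM [3H]-DTG (Tris-HCl 50 mM, pH 8.0, 25 °C, 120 min) using 15 μg transfected HEK-293 membrane protein, with 10 μM haloperidol defining NSB. Bound radioactivity counted after filtration; results as single-point % inhibition (1 or 10 μM) or five-point Ki.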

[1] = tested on: mechanical hypersensitivity; settings: SNI mice model of neuropathic pain; cited from earlier work
sigma-2 (σ2) site = sigma-2 (σ2) site (Homo sapiens, UniProt Q5BJF2); settings: background statement; cited from earlier work
sigma-2 (σ2) site, sequence (Q5BJF2 whole entry): as above

T1 sequence (Q99720 whole entry): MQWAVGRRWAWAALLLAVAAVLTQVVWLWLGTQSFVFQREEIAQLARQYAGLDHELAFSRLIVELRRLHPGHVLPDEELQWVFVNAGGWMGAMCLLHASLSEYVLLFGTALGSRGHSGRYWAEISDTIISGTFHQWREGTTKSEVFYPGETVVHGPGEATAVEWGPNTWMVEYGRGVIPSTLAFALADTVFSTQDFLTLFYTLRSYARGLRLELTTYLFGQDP

| Compound | Ki (human σ1 receptor) | Ki (human σ2/TMEM97 receptor) | effect on mechanical hypersensitivity [1] | affinity for the sigma-2 (σ2) site (sigma-2 (σ2) site) |
| --- | --- | --- | --- | --- |
| CCn1nc(-c2ccnc(C)c2)c(C(=O)N2CCC3(CCN(CCC(C)(C)C)CC3)CC2)c1Cl [Example 207, (5-Chloro-1-ethyl-3-(2-methylpyridin-4-yl)-1H-pyrazol-4-yl)(9-(3,3-dimethylbutyl)-3,9-diazaspiro[5.5]undecan-3-yl)methanone] | 100 to 500 nM | < 100 nM | – | – |
| Cc1cc(-c2nn(C)c(Cl)c2CC(=O)N2CCC3(CCN(CCC(C)(C)C)CC3)CC2)no1 [Example 208, 2-(5-Chloro-1-methyl-3-(5-methylisoxazol-3-yl)-1H-pyrazol-4-yl)-1-(9-(3,3-dimethylbutyl)-3,9-diazaspiro[5.5]undecan-3-yl)ethan-1-one] | 500 to 1000 nM | < 100 nM | – | – |
| CCn1nc(-c2ccon2)c(CC(=O)N2CCC3(CCN(CCC(C)(C)C)CC3)CC2)c1Cl [Example 209, 2-(5-Chloro-1-ethyl-3-(isoxazol-3-yl)-1H-pyrazol-4-yl)-1-(9-(3,3-dimethylbutyl)-3,9-diazaspiro[5.5]undecan-3-yl)ethan-1-one] | < 100 nM | < 100 nM | – | – |
| CCn1nc(-c2cc(C)on2)c(CC(=O)N2CCC3(CCN(CCC(C)(C)C)CC3)CC2)c1Cl [Example 210, 2-(5-Chloro-1-ethyl-3-(5-methylisoxazol-3-yl)-1H-pyrazol-4-yl)-1-(9-(3,3-dimethylbutyl)-3,9-diazaspiro[5.5]undecan-3-yl)ethan-1-one] | 500 to 1000 nM | < 100 nM | – | – |
| CCn1nc(-c2ccon2)c(CC(=O)Nc2ccc3c(c2)CCN(CCC(C)(C)C)C3)c1Cl [Example 211, 2-(5-Chloro-1-ethyl-3-(isoxazol-3-yl)-1H-pyrazol-4-yl)-N-(2-(3,3-dimethylbutyl)-1,2,3,4-tetrahydroisoquinolin-6-yl)acetamide] | < 100 nM | < 100 nM | – | – |
| CCn1nc(-c2ccon2)c(CC(=O)NCC2CCCN(CCC(C)(C)C)C2)c1Cl (stereo not drawn) [Example 212, 2-(5-Chloro-1-ethyl-3-(isoxazol-3-yl)-1H-pyrazol-4-yl)-N-((1-(3,3-dimethylbutyl)piperidin-3-yl)methyl)acetamide] | < 100 nM | 100 to 500 nM | – | – |
| Cn1nc(-c2cccc(C(F)(F)F)n2)c(CC(=O)N2CCC3(CCN(CCC(C)(C)C)CC3)CC2)c1Cl [Example 213, 2-(5-Chloro-1-methyl-3-(6-(trifluoromethyl)pyridin-2-yl)-1H-pyrazol-4-yl)-1-(9-(3,3-dimethylbutyl)-3,9-diazaspiro[5.5]undecan-3-yl)ethan-1-one] | 100 to 500 nM | < 100 nM | – | – |
| Cc1cc(-c2nn(C)c(Cl)c2CC(=O)N2CCCC3(CCN(CCC(C)(C)C)CC3)C2)no1 [Example 214, 2-(5-Chloro-1-methyl-3-(5-methylisoxazol-3-yl)-1H-pyrazol-4-yl)-1-(9-(3,3-dimethylbutyl)-2,9-diazaspiro[5.5]undecan-2-yl)ethan-1-one] | 100 to 500 nM | < 100 nM | – | – |
| Cc1cc(-c2nn(C)c(Cl)c2CC(=O)NC2CCC3(CC2)CCN(CCC(C)(C)C)CC3)no1 [Example 215, 2-(5-Chloro-1-methyl-3-(5-methylisoxazol-3-yl)-1H-pyrazol-4-yl)-N-(3-(3,3-dimethylbutyl)-3-azaspiro[5.5]undecan-9-yl)acetamide] | 100 to 500 nM | < 100 nM | – | – |
| CCn1nc(-c2cc(C)on2)c(CC(=O)NC2CCC3(CC2)CCN(CCC(C)(C)C)CC3)c1Cl [Example 216, 2-(5-Chloro-1-ethyl-3-(5-methylisoxazol-3-yl)-1H-pyrazol-4-yl)-N-(3-(3,3-dimethylbutyl)-3-azaspiro[5.5]undecan-9-yl)acetamide] | < 100 nM | < 100 nM | – | – |
| CCn1nc(-c2cc(C)on2)c(CC(=O)N2CCCC3(CCN(CCC(C)(C)C)CC3)C2)c1Cl [Example 217, 2-(5-Chloro-1-ethyl-3-(5-methylisoxazol-3-yl)-1H-pyrazol-4-yl)-1-(9-(3,3-dimethylbutyl)-2,9-diazaspiro[5.5]undecan-2-yl)ethan-1-one] | 100 to 500 nM | < 100 nM | – | – |
| CCn1nc(-c2ccon2)c(CC(=O)N2CCCC3(CCN(CCC(C)(C)C)CC3)C2)c1Cl [Example 218, 2-(5-Chloro-1-ethyl-3-(isoxazol-3-yl)-1H-pyrazol-4-yl)-1-(9-(3,3-dimethylbutyl)-2,9-diazaspiro[5.5]undecan-2-yl)ethan-1-one] | > 1000 nM | < 100 nM | – | – |
| CCn1nc(-c2ccon2)c(CC(=O)NC2CCC3(CC2)CCN(CCC(C)(C)C)CC3)c1Cl [Example 219, 2-(5-Chloro-1-ethyl-3-(isoxazol-3-yl)-1H-pyrazol-4-yl)-N-(3-(3,3-dimethylbutyl)-3-azaspiro[5.5]undecan-9-yl)acetamide] | 100 to 500 nM | < 100 nM | – | – |
| Cc1cc(-c2nn(C)c(Cl)c2CC(=O)NC2CCN(CCC(C)(C)C)CC2)no1 [Example 220, 2-(5-Chloro-1-methyl-3-(5-methylisoxazol-3-yl)-1H-pyrazol-4-yl)-N-(1-(3,3-dimethylbutyl)piperidin-4-yl)acetamide] | 100 to 500 nM | < 100 nM | – | – |
| CCn1nc(-c2ccon2)c(CC(=O)NC2CCN(CCC(C)(C)C)CC2)c1Cl [Example 221, 2-(5-Chloro-1-ethyl-3-(isoxazol-3-yl)-1H-pyrazol-4-yl)-N-(1-(3,3-dimethylbutyl)piperidin-4-yl)acetamide] | < 100 nM | < 100 nM | – | – |
| Cn1nc(-c2cccc(C(F)(F)F)n2)c(CC(=O)NC2CCN(CCC(C)(C)C)CC2)c1Cl [Example 222, 2-(5-Chloro-1-methyl-3-(6-(trifluoromethyl)pyridin-2-yl)-1H-pyrazol-4-yl)-N-(1-(3,3-dimethylbutyl)piperidin-4-yl)acetamide] | < 100 nM | < 100 nM | – | – |
| CCn1nc(-c2cccc(C(F)(F)F)n2)c(CC(=O)NC2CCN(CCC(C)(C)C)CC2)c1Cl [Example 223, 2-(5-chloro-1-ethyl-3-(6-(trifluoromethyl)pyridin-2-yl)-1H-pyrazol-4-yl)-N-(1-(3,3-dimethylbutyl)piperidin-4-yl)acetamide] | < 100 nM | < 100 nM | – | – |
| CCn1nc(-c2ccon2)c(CC(=O)NC2CC3(CCN(CCC(C)(C)C)CC3)C2)c1Cl [Example 224, 2-(5-chloro-1-ethyl-3-(isoxazol-3-yl)-1H-pyrazol-4-yl)-N-(7-(3,3-dimethylbutyl)-7-azaspiro[3.5]nonan-2-yl)acetamide] | 100 to 500 nM | < 100 nM | – | – |
| CCn1nc(-c2cc(C)on2)c(CN2CC3(CCN(CCC(C)(C)C)CC3)CC2=O)c1Cl [Example 225, 2-((5-Chloro-1-ethyl-3-(5-methylisoxazol-3-yl)-1H-pyrazol-4-yl)methyl)-8-(3,3-dimethylbutyl)-2,8-diazaspiro[4.5]decan-3-one] | 100 to 500 nM | < 100 nM | – | – |
| CCCn1nc(-c2cc(C)on2)c(CN2CC3(CCN(CCC(C)(C)C)CC3)CC2=O)c1Cl [Example 226, 2-((5-Chloro-3-(5-methylisoxazol-3-yl)-1-propyl-1H-pyrazol-4-yl)methyl)-8-(3,3-dimethylbutyl)-2,8-diazaspiro[4.5]decan-3-one] | 100 to 500 nM | < 100 nM | – | – |
| Cn1nc(-c2cccc(C(F)(F)F)n2)c(CN2CC3(CCN(CCC(C)(C)C)CC3)CC2=O)c1Cl [Example 227, 2-((5-Chloro-1-methyl-3-(6-(trifluoromethyl)pyridin-2-yl)-1H-pyrazol-4-yl)methyl)-8-(3,3-dimethylbutyl)-2,8-diazaspiro[4.5]decan-3-one] | < 100 nM | < 100 nM | – | – |
| Cc1cccc(-c2nn(C)c(Cl)c2CN2CC3(CCN(CCC(C)(C)C)CC3)CC2=O)n1 [Example 228, 2-((5-Chloro-1-methyl-3-(6-methylpyridin-2-yl)-1H-pyrazol-4-yl)methyl)-8-(3,3-dimethylbutyl)-2,8-diazaspiro[4.5]decan-3-one] | 100 to 500 nM | 100 to 500 nM | – | – |
| CCn1nc(-c2cccc(C(F)(F)F)n2)c(CN2CC3(CCN(CCC(C)(C)C)CC3)CC2=O)c1Cl [Example 229, 2-((5-Chloro-1-ethyl-3-(6-(trifluoromethyl)pyridin-2-yl)-1H-pyrazol-4-yl)methyl)-8-(3,3-dimethylbutyl)-2,8-diazaspiro[4.5]decan-3-one] | < 100 nM | < 100 nM | – | – |
| OCCCN1CCCC2CC1c1cc(-c3ccc(C(F)(F)F)cc3)ccc12 (stereo not drawn) [UKH-1114] | – | – | relieved mechanical hypersensitivity | – |
| (+)-SKF-10047 | – | – | – | micromolar affinity |
